Reference: US12594263B2, “CBL inhibitors and compositions for expansion of immune cells” (Nurix Therapeutics, Inc., priority 2019, dated 2026)

How the values were obtained:
[1] = system: human tumor-infiltrating lymphocytes (TIL); assay: Expansion of TIL ex vivo from human tumor fragments (pre-REP, 24-well plate); type: cell-based; details: for Percentage of total cell number relative to IL-2 alone on day 17: alone or with IL-2 6000 IU/mL
Description: Samples of human ovarian and colon tumors were obtained from the Cooperative Human Tissue Network (CHTN, c/o Vanderbilt University Medical Center, Nashville, Tenn.). Solid tumor specimens were carefully dissected free of surrounding fatty and necrotic areas. The tumors were sliced into 8 mm^3 (2×2×2 mm^3) fragments under sterile conditions using a scalpel and a scalpel holder.
(§1) The plates were placed in a humidified 37° C. incubator with 5% CO2. Half of the medium was replaced every two days after culture initiation. […] Subsequently, half the media was replaced thrice weekly, cultures were split to maintain a cell density of 1×10^6 cells/mL. […] Mitochondrial markers including, Mitotracker, Mitoprobe, and 2-NBDG may also be used to assess differentiation and/or activation of cells.

[2] = system: human tumor-infiltrating lymphocytes (TIL); assay: Flow cytometry immunophenotyping of expanded TIL (lineage and memory markers); type: cell-based; details: for CD4 TCM CD62L+ CCR7+, percentage of total TIL cell number on day 28: TIL1 population, alone or with IL-2
Description: as §1
(§2) T lymphocytes were defined based on lineage and differentiation marker expression according to the developmental model (Restifo, Blood, 124:476-477, 2014), as shown in Table 4.

[3] = system: human T cells from donor PBMC; assay: Flow cytometry immunophenotyping of T cells expanded from donor PBMC; type: cell-based
Excerpt: At day eleven, cells were pooled and counted, and immunophenotyped at day 11 by flow cytometry by measuring expression of lineage (CD4, CD8) and differentiation (including CD45RA, CD45RO, CD95, CCR7, CD62L, TCF1, PD-1, TIM3, LAG3) markers.
as §2

OT-1 cells = assay: Re-stimulation of harvested splenocytes with OVA Class I peptide; type: cell-based, mouse
Description: The expanded OT-1 cells were characterized by FACS analysis and transferred into E.G7-OVA mice, which bear ovalbumin (OVA) expressing tumors. Following in vivo transfer of expanded OT-1 cells, antitumor response was monitored over time and the quality and quantity of immune response was assessed at various time points. Analysis included FACS analysis on blood, tumor, and spleen samples. Analysis also included re-stimulation of splenocytes with OVA Class I peptide to evaluate the multifunctionality of the antigen-specific effector T cells.
Expanded OT-1 cells were assessed from splenocytes 11 days after transfer. Harvested splenocytes were re-stimulated with OVA Class I peptide for 72 hours.
Expanded OT-1 cells were assessed from splenocytes 11 days after transfer. Harvested splenocytes were re-stimulated with OVA Class I peptide for 4 hours.
Expanded OT-1 cells were assessed from splenocytes 11 days after transfer. Harvested splenocytes were re-stimulated with OVA Class I peptide for 24 hours.

[4] = system: TIL from ovarian, colon and breast cancer tissues; assay: Phenotype of TIL expanded 14 days in GREX 10 flasks; type: cell-based, human; details: GREX 10 format, versus IL-2 alone (FIG. 26)
Description: TIL directly derived from fresh ovarian, colon and breast cancer tissues (fresh, n=7) obtained after 14 days' ex vivo culture of cancer tissue fragments were analyzed by flow cytometry.
TIL directly derived from fresh ovarian, colon and breast cancer tissues (fresh, n=7) obtained after 14 days' ex vivo culture of cancer tissue fragments were analyzed by flow cytometry. FIG. 26 provides FACS data showing percentages of central memory (CD45RO+CD8+) and effector memory (CD45RO+CD8-) phenotype among CD8+CD45RO+, respectively. FACS results were expressed as the mean SEM.

breast TIL = assay: CDR3 diversity of expanded breast TIL (iRepertoire sequencing); type: cell-based, human; details: 14 days in GREX 10 (FIGS. 32A-C)
Description: TIL were cultured for 14 days in GREX™10. […] The raw data were analyzed by iRepertoire using IRmap programs with a modified Smith-Waterman algorithm. Using CDR3algebra software, the calculation of shared CDR3s across samples with the indicated treatment was assessed. […] All CDR3 frequencies were scaled to 10 million reads to account for differences in read depth among samples. Data was normalized so that each uCDR3-VDJ combination was treated as a quantity of 1 regardless of read count, and then analyzed for V usage and J usage.

## C[C@@H]1CN(Cc2cc3c(c(C(F)(F)F)c2)CN(c2cccc(C4(Cc5nncn5C)COC4)c2)C3=O)CCC1(F)F [Compound 103]
[1]; 0.1-10 μM Cbl inhibitor, no IL-2
  Expansion of TIL in the absence of IL-2: considerable expansion of TIL
[1]; TIL1 (ovary), 0.1 μM Cbl-i
  Percentage of total cell number relative to IL-2 alone on day 17: 90%
[1]; TIL1 (ovary), 1.0 μM Cbl-i
  Percentage of total cell number relative to IL-2 alone on day 17: 75%
[1]; TIL1 (ovary), 10 μM Cbl-i
  Percentage of total cell number relative to IL-2 alone on day 17: 60%
[1]; TIL2 (ovary), 0.1 μM Cbl-i
  Percentage of total cell number relative to IL-2 alone on day 17: 30%
[1]; TIL2 (ovary), 1.0 μM Cbl-i
  Percentage of total cell number relative to IL-2 alone on day 17: 26%
[1]; TIL2 (ovary), 10 μM Cbl-i
  Percentage of total cell number relative to IL-2 alone on day 17: 22%
[1]; TIL3 (ovary), 0.1 μM Cbl-i
  Percentage of total cell number relative to IL-2 alone on day 17: 30%
[1]; TIL3 (ovary), 1.0 μM Cbl-i
  Percentage of total cell number relative to IL-2 alone on day 17: 43%
[1]; TIL3 (ovary), 10 μM Cbl-i
  Percentage of total cell number relative to IL-2 alone on day 17: 16%
[1]; TIL4 (colon), 0.1 μM Cbl-i
  Percentage of total cell number relative to IL-2 alone on day 17: 45%
[1]; TIL4 (colon), 1.0 μM Cbl-i
  Percentage of total cell number relative to IL-2 alone on day 17: 58%
[1]; TIL4 (colon), 10 μM Cbl-i
  Percentage of total cell number relative to IL-2 alone on day 17: 54%
[1]; TIL5 (ovary), 0.1 μM Cbl-i
  Percentage of total cell number relative to IL-2 alone on day 17: 50%
[1]; TIL5 (ovary), 1.0 μM Cbl-i
  Percentage of total cell number relative to IL-2 alone on day 17: 70%
[1]; TIL5 (ovary), 10 μM Cbl-i
  Percentage of total cell number relative to IL-2 alone on day 17: 90%
[1]; TIL6 (ovary), 0.1 μM Cbl-i
  Percentage of total cell number relative to IL-2 alone on day 17: 93%
[1]; TIL6 (ovary), 1.0 μM Cbl-i
  Percentage of total cell number relative to IL-2 alone on day 17: 87%
[1]; TIL6 (ovary), 10 μM Cbl-i
  Percentage of total cell number relative to IL-2 alone on day 17: 80%
[2]; 0.1 μM Cbl-i
  CD4 TCM CD62L+ CCR7+, percentage of total TIL cell number on day 28: 2.8%
[2]; 1.0 μM Cbl-i
  CD4 TCM CD62L+ CCR7+, percentage of total TIL cell number on day 28: 8.0%
[2]; Table 5
  Phenotype of human TIL expanded ex vivo: TCM (CD45RO+, CD95+, CCR7+, CD62L+) or TEM (CD45RO+, CD95+, CCR7−, CD62L−) phenotype
[2]; tumor sample, FIG. 7
  Expansion of CD8+ versus CD4+ T lymphocytes in TIL culture: selectively expand CD8+ T lymphocytes
[3]; 1 μM Cbl inhibitor alone, versus IL-2 alone
  Percentage of CD8+ cells in culture: higher percentages of CD8+ cells than those cultured in IL-2 alone
[3]; donor PBMC, Table 7
  Phenotype of human T cells expanded ex vivo: TSCM (CD45RA+, CD95+, CCR7+, CD62L+), TCM (CD45RO+, CD95+, CCR7+, CD62L+) or TEM (CD45RO+, CD95+, CCR7−, CD62L−) phenotype
[3]; donor PBMC, 0.1 μM Cbl-i, alone or with IL-2
  CD4 TsCM, percentage of total cell number on day 11: 12%
[3]; donor PBMCs, FIGS. 2A and 2B
  Selective expansion of CD8+ T lymphocytes: selectively expand CD8+ T lymphocytes from donor PBMCs
OT-1 cells; OVA Class I peptide 4 hours, versus IL-2 alone (FIG. 16C)
  Exhaustion markers (PD1 and TIM3) in multifunctional cells: lower level of expression of exhaustion markers (PD1 and TIM3)
OT-1 cells; OVA Class I peptide 4 hours, versus IL-2 alone (FIGS. 16A, 16B)
  Multifunctionality (IFN-gamma and TNF-alpha double positive cells): comparable multifunctionality
OT-1 cells; OVA Class I peptide 24 hours (FIG. 17B)
  IL-2 production upon restimulation: increased IL-2 production upon restimulation
OT-1 cells; splenocytes 11 days after transfer, OVA Class I peptide 72 hours (FIG. 15)
  Ability to proliferate in response to peptide restimulation: superior intrinsic ability to proliferate in response to peptide restimulation
[4]
  CD8+ central memory T cells: increases CD8+ central memory T cells
Breast TIL
  Unique CDR3s: increased
